From patent publication US9206173B2, “Heterocyclic compounds for the treatment of stress-related conditions” (OTSUKA PHARMACEUTICAL CO., LTD., priority 2009, dated 2015)
Where a name gives a salt, the structure may show the parent alone.

Experiments:
[1] = molecular target: T1, human GPR10 (Homo sapiens (Human), UniProt P49683); experiment: Inhibitory activity on binding of [3H]-PrRP to GPR10 (HEK 293 cell membrane fraction); details: [3H]-PrRP 1 nM, human GPR10-expressing HEK 293 cell membrane fraction; Ki from IC50 by Cheng-Prussoff formula
T1 sequence (P49683 whole entry): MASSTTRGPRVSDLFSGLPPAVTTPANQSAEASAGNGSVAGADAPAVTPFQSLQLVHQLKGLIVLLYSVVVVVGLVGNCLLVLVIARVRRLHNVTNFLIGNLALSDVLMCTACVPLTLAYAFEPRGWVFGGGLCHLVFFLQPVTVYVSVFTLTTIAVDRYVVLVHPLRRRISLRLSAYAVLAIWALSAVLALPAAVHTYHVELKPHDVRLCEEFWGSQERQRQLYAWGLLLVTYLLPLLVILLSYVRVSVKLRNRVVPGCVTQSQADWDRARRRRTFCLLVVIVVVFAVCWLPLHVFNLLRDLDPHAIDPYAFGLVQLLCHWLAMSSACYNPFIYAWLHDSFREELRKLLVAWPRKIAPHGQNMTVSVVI
Protocol: Inhibitory Activity on Binding of [^3H]-PrRP to GPR10
Human GPR10 receptor expressing human embryonic kidney cells, HEK 293 cells, were cultured in Dulbecco's Modified Eagle's medium supplemented with 10% fetal bovine serum and 1% penicilline-streptmycin at 37° C., in 5% carbon dioxide gas conditions. The medium was removed and the cells were recovered in a phosphate buffer to prepare a cell suspension. The cell suspension was homogenated on ice by an ultrasonic cell homogenizer (Microson™ type XL200) and centrifuged at 40,000 g for 10 minutes at 4° C. After the supernatant was discarded, Buffer A (20 mM HEPES, 10 mM EDTA, 1 μl/ml protease inhibiting cocktail, pH 7.4) was added to the pellet. The pellet was suspended by the ultrasonic cell homogenizer, then the suspension was centrifuged at 40,000 g, for 10 minutes at 4° C. After this operation was repeated once again, the supernatant was discarded, Buffer B (20 mM HEPES, 0.1 mM EDTA, pH 7.4) was added to the pellet, and the pellet was suspended by the ultrasonic homogenizer. This was stored at a freezer of −80° C. as a cell membrane fraction until use in a binding test.
To each well of a 96-well plate, 150 μl of assay buffer (20 mM HEPES, 10 mM EDTA, 1 μl/ml protease inhibiting agent cocktail, pH 7.4), 20 μl of cell membrane fraction, 10 μl of test compound and [^3H]-PrRP (final concentration 1 nM) were added and incubated at room temperature for 90 minutes. After completion of the reaction, using a cell harvester, the cell-membrane fraction sample product was filtered under aspiration by a glass fiber filter plate (Unifilter; GF/B) previously treated with 0.5% polyethylene imine. The filter was washed with a 50 mM Tris hydrochloric acid buffer (pH 7.4) three times. After the filter was dried in a dryer (50° C.) for about 3 hours, 40 μl of liquid scintillation cocktail (MicroScint-O) was added to each well and radio activity was measured by a scintillation counter (Packard Topcount). The radio activity in the presence of an excessive amount of non-labeled PrRP (final concentration: 100 nM) was regarded as non-specific binding.
The binding inhibition rate was calculated based on calculating formula: 100−(radio activity when a compound is added−radio activity of non-specific binding)÷(radio activity when a solvent is added−radio activity of non-specific binding)×100.
An IC50 value was calculated based on the concentration dependent reaction using a non-linear analysis program and a Ki value was calculated using Cheng-Prussoff formula.

[2] = molecular target: T1, human GPR10; experiment: Antagonistic activity on PrRP-induced intracellular calcium mobilization in human GPR10-expressing HEK293 cells; type: cell-based; details: PrRP 1 nM-induced intracellular calcium mobilization, Fluo-8
Protocol: Pharmacological Test 2 Antagonistic Activity on GPR10 Using Human GPR10-Expressing HEK293 Cells.
Antagonistic activity of test compounds on PrRP-induced intracellular calcium mobilization was evaluated using GPR10-expressing HEK293 cells.
HEK293 cells expressing human GPR10 were maintained in Dulbecco's Modified Eagles' medium supplemented with 10% fetal bovine serum, 1% penicillin-streptomycin and 20 mM HEPES at 37° C. in a 5% CO2 incubator. GPR10-expressing HEK293 cells were placed in poly-D-lysine coated 96-well culture plates and cultured for 18-24 hr before the test at a density of 3×10^4 cells/well. […] The cells were incubated with test compounds for 15 min at room temperature, and then PrRP (the final concentration, 1 nM) was added into the medium. The changes in intracellular calcium-dependent fluorescence were monitored using a fluorescence imaging plate reader (FDSS3000, Hamamatsu Photonics K.K.). Fluo-8 fluorescence was measured with excitation at 490 nm and emission at 520 nm. The calcium-dependent fluorescence intensity was calculated by subtracting basal intensity (average intensity for 30 sec before agonist stimulation) from peak intensity for 60 sec after PrRP-stimulation, and then IC50 values were determined by nonlinear curve-fitting program, GraphPad Prism 5.

SMILES	Ki [1]	IC50 [2]
C[C@H](Nc1nc2c(c(=O)n1N1CCOCC1)CN(C(=O)c1ccc(C#N)cc1)CC2)c1ccc(C(F)(F)F)cc1 [Example 2432, 4-{3-morpholin-4-yl-4-oxo-2-[(S)-1-(4-trifluoromethylphenyl)ethylamino]-3,5,7,8-tetrahydro-4H-pyrido[4,3-d]pyrimidine-6-carbonyl}benzonitrile hydrochloride]	0.036 µM	0.238 µM
COn1c(N[C@@H](C)c2ccc(C(F)(F)F)cc2)nc2c(c1=O)CN(C(=O)CCc1ccc(Cl)cc1)CC2 [Example 2391, 6-[3-(4-chlorophenyl)propionyl]-3-methoxy-2-[(S)-1-(4-trifluoromethylphenyl)ethylamino]-5,6,7,8-tetrahydro-3H-pyrido[4,3-d]pyrimidin-4-one]	0.134 µM	3.9 µM
C[C@H](Nc1nc2c(c(=O)n1N(C)C)CN(C(=O)c1c(F)cc(F)cc1F)CC2)c1ccc(C(F)(F)F)cc1 [Example 2484, 3-dimethylamino-6-(2,4,6-trifluorobenzoyl)-2-[(S)-1-(4-trifluoromethylphenyl)ethylamino]-5,6,7,8-tetrahydro-3H-pyrido[4,3-d]pyrimidin-4-one hydrochloride]	0.006 µM	0.216 µM
CC#CCn1c(N[C@@H](C)c2ccc(C(F)(F)F)cc2)nc2c(c1=O)CN(C(=O)c1ccc3cccnc3c1)CC2 [Example 2417, 3-(2-butynyl)-6-(quinoline-7-carbonyl)-2-[(S)-1-(4-trifluoromethylphenyl)ethylamino]-5,6,7,8-tetrahydro-3H-pyrido[4,3-d]pyrimidin-4-one dihydrochloride]	0.017 µM	0.78 µM
CC#CCn1c(N[C@@H](C)c2ccc(C(F)(F)F)cc2)nc2c(c1=O)CN(C(=O)c1ccc(Cl)cc1)CC2 [Example 2409, 3-(2-butynyl)-6-(4-chlorobenzoyl)-2-[(S)-1-(4-trifluoromethylphenyl)ethylamino]-5,6,7,8-tetrahydro-3H-pyrido[4,3-d]pyrimidin-4-one hydrochloride]	0.016 µM	2.44 µM
COc1ccc(C(=O)N2CCc3nc(N[C@@H](C)c4ccc(C(F)(F)F)cc4)n(OC)c(=O)c3C2)c(OC)n1 [Example 2419, 6-(2,6-dimethoxypyridine-3-carbonyl)-3-methoxy-2-[(S)-1-(4-trifluoromethylphenyl)ethylamino]-5,6,7,8-tetrahydro-3H-pyrido[4,3-d]pyrimidin-4-one]	0.007 µM	0.228 µM
C#CCn1c(N[C@@H](C)c2ccc(C(F)(F)F)cc2)nc2c(c1=O)CN(C(=O)c1ccc(Cl)cc1)CC2 [Example 2, 6-(4-chlorobenzoyl)-3-propargyl-2-(S)-{1-[4-(trifluoromethyl)phenyl]ethylamino}-5,6,7,8-tetrahydropyrido[4,3-d]pyrimidin-4-(3H)-one hydrochloride]	0.029 µM	0.378 µM
CCOn1c(N[C@H](C)c2ccc(C(F)(F)F)cc2)nc2c(c1=O)CN(C(=O)c1ccc(C#N)cc1)CC2 [Example 92]	0.011 µM	0.156 µM
C[C@H](Nc1nc2c(c(=O)n1N1CCOCC1)CN(C(=O)c1ccc(C#N)cc1F)CC2)c1ccc(C(F)(F)F)cc1 [Example 2463, 3-fluoro-4-{3-morpholin-4-yl-4-oxo-2-[(S)-1-(4-trifluoromethylphenyl)ethylamino]-3,5,7,8-tetrahydro-4H-pyrido[4,3-d]pyrimidine-6-carbonyl}benzonitrile hydrochloride]	0.003 µM	0.187 µM
COn1c(N[C@@H](C)c2ccc(C(F)(F)F)cc2)nc2c(c1=O)CN(C(=O)c1ccc(C)c(C)c1)CC2 [Example 2452, 6-(3,4-dimethylbenzoyl)-3-methoxy-2-[(S)-1-(4-trifluoromethylphenyl)ethylamino]-5,6,7,8-tetrahydro-3H-pyrido[4,3-d]pyrimidin-4-one]	0.004 µM	1.03 µM
COn1c(NC(c2ccc(Cl)cc2)C(C)C)nc2c(c1=O)CN(C(=O)c1ccc(Cl)cc1)CC2 (centres unmarked) [Example 2441, 6-(4-chlorobenzoyl)-2-[1-(4-chlorophenyl)-2-methylpropylamino]-3-methoxy-5,6,7,8-tetrahydro-3H-pyrido[4,3-d]pyrimidin-4-one]	0.037 µM	4.49 µM
COn1c(N[C@@H](C)c2ccc(C(F)(F)F)cc2)nc2c(c1=O)CN(C(=O)c1ccc(OC(F)(F)F)cc1)CC2 [Example 63]	0.016 µM	0.686 µM
COn1c(N[C@@H](C)c2ccc(C(F)(F)F)cc2)nc2c(c1=O)CN(C(=O)c1ccc(Cl)cc1)CC2 [Example 10, 6-(4-chlorobenzoyl)-3-methoxy-2-(S)-{1-[4-(trifluoromethyl)phenyl]ethylamino}-5,6,7,8-tetrahydropyrido[4,3-d]pyrimidin-4-(3H)-one hydrochloride]	0.017 µM	0.14 µM
C#CCn1c(N[C@@H](C)c2ccc(C(F)(F)F)cc2)nc2c(c1=O)CN(C(=O)c1ccc(C#N)cc1F)CC2 [Example 1, 6-(4-cyano-2-fluorobenzoyl)-3-propargyl-2-(S)-{1-[4-(trifluoromethyl)phenyl]ethylamino}-5,6,7,8-tetrahydropyrido[4,3-d]pyrimidin-4-(3H)-one hydrochloride]	0.005 µM	0.042 µM
COn1c(N[C@@H](C)c2ccc(C(F)(F)F)cc2)nc2c(c1=O)CN(C(=O)CSc1ccc(Cl)cc1)CC2 [Example 2390, 6-[2-(4-chlorophenylsulfanyl)acetyl]-3-methoxy-2-[(S)-1-(4-trifluoromethylphenyl)ethylamino]-5,6,7,8-tetrahydro-3H-pyrido[4,3-d]pyrimidin-4-one]	0.008 µM	1.14 µM
COn1c(N[C@H](c2ccc(Cl)cc2)C(C)C)nc2c(c1=O)CN(C(=O)c1ccc3c(c1)CCC(=O)N3C)CC2 [Example 2487, 2-[(S)-1-(4-chlorophenyl)-2-methylpropylamino]-3-methoxy-6-(1-methyl-2-oxo-1,2,3,4-tetrahydro-quinoline-6-carbonyl)-5,6,7,8-tetrahydro-3H-pyrido[4,3-d]pyrimidin-4-one]	0.024 µM	
COn1c(N[C@@H](C)c2ccc(C(F)(F)F)cc2)nc2c(c1=O)CN(C(=O)c1cc3occc3n1C)CC2 [Example 2465, 3-methoxy-6-(4-methyl-4H-furo[3,2-b]pyrrole-5-carbonyl)-2-[(S)-1-(4-trifluoromethylphenyl)ethylamino]-5,6,7,8-tetrahydro-3H-pyrido[4,3-d]pyrimidin-4-one]	0.01 µM	
COc1ccc2oc(C(=O)N3CCc4nc(N[C@@H](C)c5ccc(C(F)(F)F)cc5)n(OC)c(=O)c4C3)cc2c1 [Example 2460, 3-methoxy-6-(5-methoxybenzofuran-2-carbonyl)-2-[(S)-1-(4-trifluoromethylphenyl)ethylamino]-5,6,7,8-tetrahydro-3H-pyrido[4,3-d]pyrimidin-4-one]	0.014 µM	
COn1c(N[C@@H](C)c2ccc(C(F)(F)F)cc2)nc2c(c1=O)CN(C(=O)c1cc3cccnc3s1)CC2 [Example 2415, 3-methoxy-6-(thieno[2,3-b]pyridine-2-carbonyl)-2-[(S)-1-(4-trifluoromethylphenyl)ethylamino]-5,6,7,8-tetrahydro-3H-pyrido[4,3-d]pyrimidin-4-one]	0.009 µM	
COn1c(N[C@@H](C)c2ccc(C(F)(F)F)cc2)nc2c(c1=O)CN(C(=O)c1ccc3c(c1)OCCO3)CC2 [Example 2459, 6-(2,3-dihydrobenzo[1,4]dioxine-6-carbonyl)-3-methoxy-2-[(S)-1-(4-trifluoromethylphenyl)ethylamino]-5,6,7,8-tetrahydro-3H-pyrido[4,3-d]pyrimidin-4-one]	0.01 µM	
